Data reported in PubChem BioAssay (NCI).
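Cultured in 96-well plates, cells were exposed to test compound for 48 hours across five concentrations. TGI: concentration producing complete growth inhibition.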

Experiments:
Assay in all cases: inhibition of tumour cell growth, NCI panel, 48 h
HOP-92 NSCLC = tested on: HOP-92 NSCLC
SK-OV-3 ovarian = tested on: SK-OV-3 ovarian
SNB-78 CNS = tested on: SNB-78 CNS
OVCAR-5 ovarian = tested on: OVCAR-5 ovarian
KM12 colon = tested on: KM12 colon
DMS 114 small cell lung = tested on: DMS 114 small cell lung
SR leukemia = tested on: SR leukemia
NCI-H460 lung = tested on: NCI-H460 lung
HL-60(TB) leukemia = tested on: HL-60(TB) leukemia
A498 renal = tested on: A498 renal
SK-MEL-28 melanoma = tested on: SK-MEL-28 melanoma
HCC-2998 colon = tested on: HCC-2998 colon
RPMI-8226 leukemia = tested on: RPMI-8226 leukemia
OVCAR-3 ovarian = tested on: OVCAR-3 ovarian
NCI-H23 lung = tested on: NCI-H23 lung
SF-295 CNS = tested on: SF-295 CNS
SF-539 CNS = tested on: SF-539 CNS
M14 melanoma = tested on: M14 melanoma
HT29 colon = tested on: HT29 colon
CCRF-CEM leukemia = tested on: CCRF-CEM leukemia
M19-MEL melanoma = tested on: M19-MEL melanoma
NCI-H522 lung = tested on: NCI-H522 lung
IGROV1 ovarian = tested on: IGROV1 ovarian
LXFL 529 NSCLC = tested on: LXFL 529 NSCLC
MALME-3M melanoma = tested on: MALME-3M melanoma
KM20L2 colon = tested on: KM20L2 colon
SF-268 CNS = tested on: SF-268 CNS
UO-31 renal = tested on: UO-31 renal
COLO 205 colon = tested on: COLO 205 colon
SNB-75 CNS = tested on: SNB-75 CNS
MOLT-4 leukemia = tested on: MOLT-4 leukemia
HOP-62 NSCLC = tested on: HOP-62 NSCLC
OVCAR-4 ovarian = tested on: OVCAR-4 ovarian
U251 CNS = tested on: U251 CNS
UACC-257 melanoma = tested on: UACC-257 melanoma
K-562 leukemia = tested on: K-562 leukemia
ACHN renal = tested on: ACHN renal
UACC-62 melanoma = tested on: UACC-62 melanoma
SK-MEL-2 melanoma = tested on: SK-MEL-2 melanoma
SN12C renal = tested on: SN12C renal
EKVX NSCLC = tested on: EKVX NSCLC
T-47D breast = tested on: T-47D breast
SK-MEL-5 melanoma = tested on: SK-MEL-5 melanoma
NCI/ADR-RES ovarian = tested on: NCI/ADR-RES ovarian
BT-549 breast = tested on: BT-549 breast
SW-620 colon = tested on: SW-620 colon
TK-10 renal = tested on: TK-10 renal
LOX IMVI melanoma = tested on: LOX IMVI melanoma
HCT-15 colon = tested on: HCT-15 colon
CAKI-1 renal = tested on: CAKI-1 renal
MCF7 breast = tested on: MCF7 breast
HCT-116 colon = tested on: HCT-116 colon
MDA-MB-231 breast = tested on: MDA-MB-231 breast
OVCAR-8 ovarian = tested on: OVCAR-8 ovarian
MDA-MB-435 = tested on: MDA-MB-435
SNB-19 CNS = tested on: SNB-19 CNS
A549 NSCLC = tested on: A549 NSCLC
DU-145 prostate = tested on: DU-145 prostate
PC-3 prostate = tested on: PC-3 prostate
MDA-N = tested on: MDA-N
RXF 393 renal = tested on: RXF 393 renal
HS 578T breast = tested on: HS 578T breast
NCI-H226 lung = tested on: NCI-H226 lung
786-0 renal = tested on: 786-0 renal

CCN(CC)CCCC(C)Nc1cc(-c2ccccc2)nc2cc(OC)ccc12 (stereo unspecified)
TGI (HOP-92 NSCLC): 11.1 µM | TGI (SK-OV-3 ovarian): 37.5 µM | TGI (SNB-78 CNS): 18 µM | TGI (OVCAR-5 ovarian): 7.97 µM | TGI (KM12 colon): 22.3 µM | TGI (DMS 114 small cell lung): 21.8 µM | TGI (SR leukemia): 12.1 µM | TGI (NCI-H460 lung): 14.7 µM | TGI (HL-60(TB) leukemia): 7.04 µM | TGI (A498 renal): 14 µM | TGI (SK-MEL-28 melanoma): 20.5 µM | TGI (HCC-2998 colon): 2.41 µM | TGI (RPMI-8226 leukemia): 5.77 µM | TGI (OVCAR-3 ovarian): 34.5 µM | TGI (NCI-H23 lung): 32.1 µM | TGI (SF-295 CNS): 21.1 µM | TGI (SF-539 CNS): 17.7 µM | TGI (M14 melanoma): 3.52 µM | TGI (HT29 colon): 4.83 µM | TGI (CCRF-CEM leukemia): 11.4 µM | TGI (M19-MEL melanoma): 27.5 µM | TGI (NCI-H522 lung): 19.9 µM | TGI (IGROV1 ovarian): 41.9 µM | TGI (LXFL 529 NSCLC): 19.9 µM | TGI (MALME-3M melanoma): 22.4 µM | TGI (KM20L2 colon): 7.89 µM | TGI (SF-268 CNS): 32.9 µM | TGI (UO-31 renal): 9.22 µM | TGI (COLO 205 colon): 13.4 µM | TGI (SNB-75 CNS): 25.9 µM | TGI (MOLT-4 leukemia): 8.24 µM | TGI (HOP-62 NSCLC): 19.4 µM | TGI (OVCAR-4 ovarian): 18.7 µM | TGI (U251 CNS): 15.8 µM | TGI (UACC-257 melanoma): 35.6 µM | TGI (K-562 leukemia): 5.7 µM | TGI (ACHN renal): 29.8 µM | TGI (UACC-62 melanoma): 36.6 µM | TGI (SK-MEL-2 melanoma): 26.3 µM

CCN1CCCn2c(=O)[nH]c3cc(Br)cc1c32
TGI (SK-OV-3 ovarian): > 100 µM | TGI (SN12C renal): > 100 µM | TGI (OVCAR-5 ovarian): > 100 µM | TGI (KM12 colon): > 100 µM | TGI (SR leukemia): > 100 µM | TGI (NCI-H460 lung): > 100 µM | TGI (HL-60(TB) leukemia): > 100 µM | TGI (A498 renal): > 100 µM | TGI (SK-MEL-28 melanoma): > 100 µM | TGI (EKVX NSCLC): > 100 µM | TGI (HCC-2998 colon): > 100 µM | TGI (RPMI-8226 leukemia): > 100 µM | TGI (OVCAR-3 ovarian): > 100 µM | TGI (NCI-H23 lung): > 100 µM | TGI (SF-295 CNS): > 100 µM | TGI (T-47D breast): > 100 µM | TGI (SF-539 CNS): > 100 µM | TGI (SK-MEL-5 melanoma): > 100 µM | TGI (NCI/ADR-RES ovarian): > 100 µM | TGI (BT-549 breast): > 100 µM | TGI (M14 melanoma): > 100 µM | TGI (HT29 colon): > 100 µM | TGI (SW-620 colon): > 100 µM | TGI (TK-10 renal): > 100 µM | TGI (LOX IMVI melanoma): > 100 µM | TGI (CCRF-CEM leukemia): > 100 µM | TGI (IGROV1 ovarian): > 100 µM | TGI (HCT-15 colon): > 100 µM | TGI (MALME-3M melanoma): > 100 µM | TGI (CAKI-1 renal): > 100 µM | TGI (MCF7 breast): > 100 µM | TGI (HCT-116 colon): > 100 µM | TGI (MDA-MB-231 breast): > 100 µM | TGI (OVCAR-8 ovarian): > 100 µM | TGI (MDA-MB-435): > 100 µM | TGI (SF-268 CNS): > 100 µM | TGI (SNB-19 CNS): > 100 µM | TGI (UO-31 renal): > 100 µM | TGI (A549 NSCLC): > 100 µM | TGI (COLO 205 colon): > 100 µM | TGI (SNB-75 CNS): 43.2 µM | TGI (MOLT-4 leukemia): > 100 µM | TGI (HOP-62 NSCLC): > 100 µM | TGI (DU-145 prostate): > 100 µM | TGI (OVCAR-4 ovarian): > 100 µM | TGI (PC-3 prostate): > 100 µM | TGI (MDA-N): > 100 µM | TGI (RXF 393 renal): 54.6 µM | TGI (U251 CNS): > 100 µM | TGI (UACC-257 melanoma): > 100 µM | TGI (K-562 leukemia): > 100 µM | TGI (ACHN renal): > 100 µM | TGI (UACC-62 melanoma): > 100 µM | TGI (HS 578T breast): 97.2 µM | TGI (NCI-H226 lung): > 100 µM | TGI (786-0 renal): > 100 µM | TGI (SK-MEL-2 melanoma): > 100 µM
